# Experimental data from patent publication US20260055112A1, “CRYSTALLINE FORM OF PYRAZOLOPYRIMIDINE ESTER COMPOUND AND METHODS OF PREPARING THE SAME” (Shanghai Maius Pharmaceutical Co. Ltd., priority 2022, published 2026).
# Entries after “also recorded” stand apart in the source; their conditions may differ.
# Tests used:
# [1] = Stability study: change in purity after 10 days storage under forced degradation conditions; type: physicochemical; conditions: for Purity, 25° C. + 92.5% RH (Day 10): stored at 25° C. and 92.5% RH for 10 days; for Purity (Day 10): stored for 10 days
# Description: Samples of the amorphous and crystalline (Form I) compound of formula (I) were stored under different conditions: at 40° C. for 10 days; […]; at 25° C. and 92.5% RH (relative humidity) for 10 days; at 60° C. and 75% RH for 10 days; in light for 10 days; and at room temperature for 10 days.
# [2] = among the pyrazolopyrimidine ester prodrugs of CN 202111131059.0; cited from earlier work
SMILES,"Stability in general (in words) ([1]; amorphous product, heat and moisture)",Degradation observed (in words) ([1]; storage 10 days at 40° C.),"Degradation observed (in words) ([1]; storage 10 days at 40° C., listed as amorphous sample)",Degradation observed (in words) ([1]; storage 10 days at 60° C. and 75% RH),"Purity, 25° C. + 92.5% RH (Day 10) [1] [%]",Purity (Day 10) [1] [%],Stability (in words) ([1]; 10 days of storage at room temperature and in light),Degree of degradation compared with the amorphous form ([1]; several forced degradation conditions),Rate of hydrolysis in blood [2]
"C=CC(=O)N1CCC[C@@H](n2nc(-c3ccc(Oc4ccccc4)cc3)c3c(NC(=O)OCCCC)ncnc32)C1 [Amorphous, 1-[(3R)-3-[4-(butoxycarbonyl)-amino-3-(4-phenoxyphenyl)-1H-pyrazolo[3,4-d]pyrimidin-1-yl]-1-piperidinyl]-2-propen-1-one]",poor stability,Significant degradation,Noticeable degradation,almost complete degradation,98.00,0,–,–,–
"C=CC(=O)N1CCC[C@@H](n2nc(-c3ccc(Oc4ccccc4)cc3)c3c(NC(=O)OCCCC)ncnc32)C1 [Form I, 1-[(3R)-3-[4-(butoxycarbonyl)-amino-3-(4-phenoxyphenyl)-1H-pyrazolo[3,4-d]pyrimidin-1-yl]-1-piperidinyl]-2-propen-1-one]",–,–,–,–,98.63,2.19,highly stable; also recorded: very stable,lower degrees of degradation than the amorphous compound; also recorded: lower degree of degradation than the amorphous form,–
"C=CC(=O)N1CCC[C@@H](n2nc(-c3ccc(Oc4ccccc4)cc3)c3c(NC(=O)OCCCC)ncnc32)C1 [formula (I), 1-[(3R)-3-[4-(butoxycarbonyl)-amino-3-(4-phenoxyphenyl)-1H-pyrazolo[3,4-d]pyrimidin-1-yl]-1-piperidinyl]-2-propen-1-one]",–,–,–,–,–,–,–,–,hydrolyzed most rapidly
